The values that follow come from PubChem BioAssay AID652249 (Broad Institute, 2013).

Records with an inconclusive call do not appear. The source made the active and inactive calls.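 How the source made its calls: active means platelet aggregation inhibition above 50% relative to unstimulated and buffer-only controls; inactive means the rest, inconclusive results apart.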

The subject of this test is human washed platelets, SFLLRN-induced aggregation, aggregometer. The experiment in a line: blockade of human platelet clumping – cell-based, aggregometer, single point, dry powder samples, mechanism study for PDI inhibitor project, late-stage follow-up (AID 652249). To be noted: at 30 µM; hits give high values.

As to `CC(C)(C)OC(=O)C1(CCOc2ccccc2)CCN(Cc2ccc(O)c(Cl)c2)CC1`, the aggregation inhibition (transmittance) was 100%. For `CCOC(=O)C1(CCOc2ccccc2)CCN(Cc2ccc(OC)c(Cl)c2)CC1` the value was 4% (inactive); for `C/C1=C\[C@@H](O)C(C)(C)CCCC2(C)OC2C[C@@H]1OC(=O)c1ccc(O)cc1` (stereo not given in full), 17% (inactive). `O=C(NC1CCCC1)C1(CCOc2ccccc2)CCN(Cc2ccc(O)c(Cl)c2)CC1`: the aggregation inhibition (transmittance) is 1% (inactive). In the case of `CC(C)OC(=O)C1(CCOc2ccccc2)CCN(Cc2ccc(O)c(Cl)c2)CC1`, the aggregation inhibition (transmittance) is 97%. In the case of `O=C(Nc1ccccc1)C1(CCOc2ccccc2)CCN(Cc2ccc(O)c(Cl)c2)CC1` it was 23% (inactive). For `CCOC(=O)C1(CCOc2ccccc2)CCN(Cc2ccc(O)cc2)CC1` the value was 0% (inactive); for `CCOC(=O)C1(CCOc2ccccc2)CCN(C(=O)c2ccc(O)c(Cl)c2)CC1`, 100%.

Regarding `C/C1=C\C[C@H](OC(=O)c2ccc(O)cc2)/C(C)=C/[C@@H](O)C(C)(C)CCC1`, the aggregation inhibition (transmittance) is 100%. Consider `CCN(C)C(=O)C1(CCOc2ccccc2)CCN(Cc2ccc(O)c(Cl)c2)CC1`, for which the aggregation inhibition (transmittance) is 2% (inactive).
